Measurements from publication PMC6934184, “Selective DNA-PKcs inhibition extends the therapeutic index of localized radiotherapy and chemotherapy” (The Journal of Clinical Investigation, 2019).

Target: T1, RAF1 (cRAF) Y340D Y341D (Homo sapiens, UniProt P04049, Y340D/Y341D)
T1 construct: purchased Thermo Fisher Scientific (Life Technologies) SelectScreen
Assay: SelectScreen Z'LYTE
Type: biochemical
Details: ATP 100 µM
Method in brief: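 NU5455 was profiled across the SelectScreen Broad panel of kinase activity and binding assays. Z'LYTE reactions such as CSF1R ran at apparent Km ATP, while the Adapta CAMK1 assay used ATP listed as 10. Values are given as percent.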

T1 sequence (P04049 whole entry Y340D/Y341D): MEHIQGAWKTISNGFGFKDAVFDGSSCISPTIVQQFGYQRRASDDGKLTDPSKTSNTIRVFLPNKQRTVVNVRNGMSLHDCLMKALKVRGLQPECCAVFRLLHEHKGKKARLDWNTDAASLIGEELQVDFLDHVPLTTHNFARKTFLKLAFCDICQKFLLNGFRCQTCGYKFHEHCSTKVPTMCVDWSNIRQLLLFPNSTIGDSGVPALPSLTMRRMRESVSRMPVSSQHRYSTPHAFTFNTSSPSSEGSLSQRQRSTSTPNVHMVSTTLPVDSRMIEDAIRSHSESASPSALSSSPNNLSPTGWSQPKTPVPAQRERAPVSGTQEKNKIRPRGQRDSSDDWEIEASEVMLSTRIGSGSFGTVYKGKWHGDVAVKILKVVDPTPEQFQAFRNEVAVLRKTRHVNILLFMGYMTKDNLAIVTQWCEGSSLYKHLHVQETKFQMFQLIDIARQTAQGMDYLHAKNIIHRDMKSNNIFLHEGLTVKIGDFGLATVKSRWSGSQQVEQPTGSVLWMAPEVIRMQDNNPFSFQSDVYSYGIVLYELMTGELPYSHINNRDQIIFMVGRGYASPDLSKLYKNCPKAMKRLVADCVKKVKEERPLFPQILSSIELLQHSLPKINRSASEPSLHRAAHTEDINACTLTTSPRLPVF

Compound: CN(C(=O)CN1CCOCC1)c1ccc2sc3c(-c4cccc5c(=O)cc(N6CC7CCC(C6)O7)oc45)cccc3c2c1 [NU5455]
- inhibition at 1 µM: 7.9%
